The subject of this test is Von Bezold-Jarisch Reflex induced by 5-HT. Nature of the test: Von Bezold-Jarisch Reflex induced by 5-HT injected intravenously into the rat. Type of test: in vivo. An excerpt: The activity of these compounds against 5-HT can be assessed in vivo by measurement of the effect of the compound on the Von Bezold-Jarisch Reflex induced by 5-HT injected intravenously into the rat (see Paintal A.S., Physiol. Rev. 53, 159-227, 1973; J.R. Fozard, Naunyn-Schmiedeberg's Arch. Pharmacol., 326, 1984, 36-44). The transient cardiac slowing arises from an increased afferent vagus activity arising from stimulation by 5-HT of sensory afferent fibers in and around the heart.

Setting [1] is: doses of 0.01-0.1 mg/kg given intravenously.
Setting [2] is: doses of 0.25-1 mg/kg given orally.

Counter-ions that a name gives are not always drawn.

`O=C(OC1CC2CC3CC(C1)N2CC3=O)c1c[nH]c2ccccc12` (stereo not drawn) [endo-hexahydro-8-(3-indolylcarbonyloxy)-2,6-methano-2H-quinolizin-3(4H)one hydrochloride]: the “suppression of the Von Bezold-Jarisch Reflex induced by 5-HT” value reads like this: under setting [1], “suppressed the response dose-dependently”; under setting [2], “suppressed the response dose-dependently”.
Consider `Cc1cc(C)cc(C(=O)OC2CC3CC4CC(C2)N3CC4=O)c1` (stereo not drawn) [endo-8-(3,5-dimethylbenzoyloxy)hexahydro-2,6-methano-2H-quinolizin-3(4H)-one hydrochloride], for which the “suppression of the Von Bezold-Jarisch Reflex induced by 5-HT” value is on record as “suppressed the response dose-dependently” under setting [1] and “suppressed the response dose-dependently” under setting [2].
